Where a name gives a salt, the structure may show the parent alone. Read-outs that look alike come from different tables or passages of the source.
Experiments:
cotton granuloma = test: whole plant or invertebrate
From the text: The term "cotton granuloma" means hereinafter the formation of a granular-fibrous tissue around cotton balls implanted into experimental animals.

[1] = tested on: threshold of pain sensitivity in contact-heat stimulation
carrageenin edema = tested on: carrageenin edema
Protocol: (§1) The growth of foot endema in the rat was registered in dynamics after each hour from the moment of subplantar administration of a stimulus during 5 hours. Percentage of inhibition of the foor emeda in the rat was calculated from the following formula: [formula] where
(§2) Vk is the volume of a control edematic foot minus the initial volume of the same foot prior to edema;
(§3) Vo is the volume of the tested edematic foot minus the initial volume of the same foot prior to edema.
A carrageenin edema was induced by subplantar administration in rats of 0.1 ml 1% solution of carrageenin (polysaccharide prepared from Iceland or pearl moss).

[2] = tested on: formalin edema of a foot in the rat; details: for other symptoms of inflammation (hyperemia, painfulness) and formation of necrotic foci: formalin inflammation
Protocol: as §1, §2, §3

pyrogenal fever = test: Antipyretic effect in pyrogenal fever; details: rats
Protocol: Antipyretic effect of 2-(o-carboxyphenylamino)-6H-pyrimido(2,1-b)-quinazolone-6 and its derivatives were investigated in rats suffering from pyrogenal fever. Maximum decrease in the temperature (degrees) was determined.

rats = test: in vivo; details: rat, 168 h
Protocol: (§4) 2-(o-carboxyphenylamino)-6-H-pyrimido(2,1-b)-quinazolone-6 and its derivatives were tested for acute toxicity.
(§5) Acute toxicity of 2-(o-carboxyphenylamino)-6H-pyrimido(2,1-b)-quinazolone-6and its derivatives was determined in intra-abdominal and peroral administration; for cats in peroral administration. […] The statistical analysis of obtained data was carried out in accordance with the method of Litchfield, Wilcockson and Van der Waerden.

white mice = test: in vivo; details: mouse, 168 h
Protocol: as §4, §5

rabbits = test: Acute toxicity in rabbits (LD50); details: rabbit, in vivo, 10080 min
Protocol: as §4, §5

in vivo = test: in vivo
Protocol: as §4, §5

[3] = Acute toxicity in rabbits (LD50); details: rabbit, in vivo, ip, rabbits, intra-abdominal, Van der Waerden
Protocol: as §4, §5

[4] = Acute toxicity in cats (LD50); details: cat, in vivo, po
Protocol: as §4, §5

Solubility = format: physicochemical
ovalbumin edema = test: Ovalbumin edema of rat foot; format: in vivo, rats; details: 1/10 LD50 intra-abdominal
Protocol: An ovalbumin edema was induced by subplantar administration in rats of egg albumin (0.1 ml per foot). The edema developed very intensely, i.e. reached the maximum magnitude (191%) as soon as 1 hour following the injection of ovalbumin, and completely disappeared by the end of the day.
The preparations under studies were administered in the given investigations in a dose corresponding to 1/10LD50 for the rats in the intra-abdominal administration.

[5] = read-out: Percentage of inhibition (cotton granuloma)
[6] = rat, in vivo, ip, hydrochloride

SMILES: O=C(O)c1ccccc1O [Sodium salicylate, 6-oxybenzoic acid, sodium salt]
- Therapeutic index (cotton granuloma) (cotton granuloma; LD50/ED50): 7.27
- inhibition at 60 mg/kg (cotton granuloma; [5]): 8%
- inhibition at 80 mg/kg (cotton granuloma; [5]): 20%
- inhibition at 160 mg/kg (cotton granuloma; [5]): 36%
- inhibition at 240 mg/kg (cotton granuloma; [5]): 52%
- Increase in latent period of pain reaction in mice ([1]; 32 mg/kg): 28%
- Increase in latent period of pain reaction in mice ([1]; 65 mg/kg): 38%
- Increase in latent period of pain reaction in mice ([1]; 130 mg/kg): 59%
- Therapeutic index (analgetic activity) ([1]; LD50/ED50, contact-heat stimulation): 5.9
- Percentage of inhibition (carrageenin edema) (carrageenin edema; 65 mg/kg intra-abdominal): 14%
- Percentage of inhibition (carrageenin edema) (carrageenin edema; 90 mg/kg intra-abdominal): 32%
- Percentage of inhibition (carrageenin edema) (carrageenin edema; 130 mg/kg intra-abdominal): 56%
- Therapeutic index (carrageenin edema) (carrageenin edema; LD50/ED50, intra-abdominal): 5.6
- Percentage of inhibition (formalin edema) ([2]; 65 mg/kg intra-abdominal): 14%
- Percentage of inhibition (formalin edema) ([2]; 130 mg/kg intra-abdominal): 24%
- Percentage of inhibition (formalin edema) ([2]; 260 mg/kg intra-abdominal): 41%
- Therapeutic index (formalin edema) ([2]; LD50/ED50, intra-abdominal): 1.8
- other symptoms of inflammation (hyperemia, painfulness) and formation of necrotic foci [2]: almost noncharacteristic

SMILES: Cc1cccc(Nc2ccccc2C(=O)O)c1C [Mephenamine acid, N--(2,3-dimethylphenyl) anthranilic acid]
- Antipyretic effect (maximum decrease in temperature) (pyrogenal fever; 70% of LD50): 1.2 °C
- antiproliferative effect (in words) (cotton granuloma; cotton granuloma): the most effective among the given preparations
- Increase in latent period of pain reaction in mice ([1]; 3.5 mg/kg): 18%
- Increase in latent period of pain reaction in mice ([1]; 7.0 mg/kg): 36%
- Increase in latent period of pain reaction in mice ([1]; 15 mg/kg): 43%
- analgetic activity (in words) ([1]; contact-heat stimulation): possessed the most expressed analgetic effect
- Percentage of inhibition (carrageenin edema) (carrageenin edema; 25 mg/kg intra-abdominal): 33%
- Percentage of inhibition (carrageenin edema) (carrageenin edema; 50 mg/kg intra-abdominal): 44%
- Percentage of inhibition (carrageenin edema) (carrageenin edema; 100 mg/kg intra-abdominal): 50%
- Percentage of inhibition (formalin edema) ([2]; 9 mg/kg intra-abdominal): 22%
- Percentage of inhibition (formalin edema) ([2]; 18 mg/kg intra-abdominal): 24%
- Percentage of inhibition (formalin edema) ([2]; 36 mg/kg intra-abdominal): 31%
- Percentage of inhibition (formalin edema) ([2]; 72 mg/kg intra-abdominal): 33%
- other symptoms of inflammation (hyperemia, painfulness) and formation of necrotic foci [2]: almost noncharacteristic

SMILES: O=C(O)c1ccccc1Nc1ccn2c(=O)c3ccccc3nc2n1 [2-(o-carboxyphenylamino)6H-pyrimido(2,1-b)-quinazolone-6 hydrochloride]
- LD50 (rats; ip): 980 mg/kg
- LD50 (rats; po): 3800 mg/kg
- LD50 (white mice; ip): 1050 mg/kg
- LD50 (white mice; po): 3400 mg/kg
- Antipyretic effect (maximum decrease in temperature) (pyrogenal fever; 5% of LD50 (hydrochloride's dose not printed separately)): 1.4 °C
- Percentage of inhibition (cotton granuloma) (cotton granuloma; 48 mg/kg): 18%
- Percentage of inhibition (cotton granuloma) (cotton granuloma; 95 mg/kg): 24%
- Percentage of inhibition (cotton granuloma) (cotton granuloma; 190 mg/kg): 52%
- antiproliferative effect (in words) (cotton granuloma; cotton granuloma): the most effective among the given preparations
- pharmacotherapeutic width of effect relative to mephenamine acid, sodium salicylate, and phenylbutazone (cotton granuloma; cotton granuloma): three times
- Therapeutic index (cotton granuloma) (cotton granuloma; in vivo, hydrochloride): 22.3
- LD50 (rabbits; ip): 1750 mg/kg
- LD50 (rabbits; po, hydrochloride): 500 mg/kg
- Increase in latent period of pain reaction in mice ([1]; 52 mg/kg, hydrochloride): 31%
- Increase in latent period of pain reaction in mice ([1]; 105 mg/kg, hydrochloride): 52%
- Increase in latent period of pain reaction in mice ([1]; 157 mg/kg, hydrochloride): 62%
- Therapeutic index (analgetic activity) ([1]; mouse, in vivo, hydrochloride): 11.0
- Percentage of inhibition (carrageenin edema) (carrageenin edema; 25 mg/kg intra-abdominal): 12%
- Percentage of inhibition (carrageenin edema) (carrageenin edema; 49 mg/kg intra-abdominal): 26%
- Percentage of inhibition (carrageenin edema) (carrageenin edema; 98 mg/kg intra-abdominal): 55%
- Therapeutic index (carrageenin edema) (carrageenin edema; [6]): 10.9
- Percentage of inhibition (formalin edema) ([2]; 5 mg/kg intra-abdominal): 31%
- Percentage of inhibition (formalin edema) ([2]; 10 mg/kg intra-abdominal): 50%
- Percentage of inhibition (formalin edema) ([2]; 49 mg/kg intra-abdominal): 57%
- Percentage of inhibition (formalin edema) ([2]; 98 mg/kg intra-abdominal): 71%
- depression of formalin edema of a foot in the rat (in words) ([2]; comparison of preparations): the most actively depressed
- Therapeutic index (formalin edema) [2, 6]: 61.2

SMILES: O=C(O)c1ccccc1Nc1ccn2c(=O)c3ccccc3nc2n1
- LD50 at 168 h (in vivo; mouse, ip): 1050 mg/kg
- LD50 at 168 h (in vivo; mouse, po): 3400 mg/kg
- LD50 at 168 h (in vivo; rat, ip): 980 mg/kg
- LD50 at 168 h (in vivo; rat, po): 3800 mg/kg
- LD50 at 168 h [3]: 1750 mg/kg
- LD50 at 168 h [4]: 5000 mg/kg

SMILES: O=C(O)c1ccccc1Nc1ccn2c(=O)c3ccccc3nc2n1 [ethanol ammonium salt of 2-(o-carboxyphenylamino)-6H-pyrimid]
- solubility (in words) (Solubility): soluble in water

SMILES: CNC(=O)c1ccccc1Nc1ccn2c(=O)c3ccccc3nc2n1 [2-(o-methylcarbamidephenylamino)-6H-pyrimido(2,1-b)-quinazolone-6]
- LD50 at 168 h (in vivo; mouse, ip): 3000 mg/kg

SMILES: CC(C)Cc1ccc(C(C)C(=O)O)cc1 (centres unmarked) [Bruphen, 2-(para-isobutylphenyl)-propionic acid]
- Antipyretic effect (maximum decrease in temperature) (pyrogenal fever; 70% of LD50): 1.3 °C

SMILES: CCCCC1C(=O)N(c2ccccc2)N(c2ccccc2)C1=O [Phenylbutazone, 1,2-diphenyl-4-butyl pyrazolidine-dion-3,5]
- antiexudative / antiinflammatory effect in ovalbumin edema (in words) (ovalbumin edema): did not produce antiedematic effect
- Increase in latent period of pain reaction in mice ([1]; 25 mg/kg): 8%
- Increase in latent period of pain reaction in mice ([1]; 50 mg/kg): 43%
- Increase in latent period of pain reaction in mice ([1]; 100 mg/kg): 92%
- Percentage of inhibition (carrageenin edema) (carrageenin edema; 21 mg/kg intra-abdominal): 27%
- Percentage of inhibition (carrageenin edema) (carrageenin edema; 42 mg/kg intra-abdominal): 44%
- Percentage of inhibition (carrageenin edema) (carrageenin edema; 84 mg/kg intra-abdominal): 51%
- Percentage of inhibition (formalin edema) ([2]; 21 mg/kg intra-abdominal): 17%
- Percentage of inhibition (formalin edema) ([2]; 42 mg/kg intra-abdominal): 40%
- Percentage of inhibition (formalin edema) ([2]; 82 mg/kg intra-abdominal): 51%

SMILES: COC(=O)c1ccccc1Nc1ccn2c(=O)c3ccccc3nc2n1
- LD50 at 168 h (in vivo; mouse, ip): 1160 mg/kg

SMILES: COc1ccc2c(c1)c(CC(=O)O)c(C)n2C(=O)c1ccc(Cl)cc1 [Indomethacin, 1-(para-chlorobenzoyl)5-methoxy-2-methyl-indole-3-acetic acid]
- Antipyretic effect (maximum decrease in temperature) (pyrogenal fever; 70% of LD50): 0.7 °C

From US4455312A
